Assays:
Type in all cases: biochemical
JAK3 = JAK3 (Homo sapiens (Human), UniProt P52333); test: JAK Caliper Enzyme Assay at 1 mM ATP, JAK3
Method in brief: (§1)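 IC50 (nM) derived from percent conversion of fluorescently labelled peptide, measured by Caliper LabChip mobility-shift separation after EDTA stop. Each JAK family kinase domain (human, recombinant) run at 1 mM ATP and room temperature, conditions set to 20-30% product; DMSO wells define uninhibited baseline.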

JAK1 = JAK1 (Homo sapiens (Human), UniProt P23458); test: JAK Caliper Enzyme Assay at 1 mM ATP, JAK1
Chain of JAK1 (P23458 875-1153): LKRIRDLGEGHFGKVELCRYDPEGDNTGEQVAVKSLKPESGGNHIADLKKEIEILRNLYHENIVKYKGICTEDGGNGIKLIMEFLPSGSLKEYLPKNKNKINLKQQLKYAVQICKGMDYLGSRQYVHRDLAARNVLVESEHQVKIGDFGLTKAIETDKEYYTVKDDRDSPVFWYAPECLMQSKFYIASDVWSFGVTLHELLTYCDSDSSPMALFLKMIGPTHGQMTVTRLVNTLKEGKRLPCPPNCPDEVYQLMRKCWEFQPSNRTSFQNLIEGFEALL
Method in brief: as §1

JAK2 = JAK2 (Homo sapiens (Human), UniProt O60674); test: JAK Caliper Enzyme Assay at 1 mM ATP, JAK2
Chain of JAK2 (O60674 849-1124): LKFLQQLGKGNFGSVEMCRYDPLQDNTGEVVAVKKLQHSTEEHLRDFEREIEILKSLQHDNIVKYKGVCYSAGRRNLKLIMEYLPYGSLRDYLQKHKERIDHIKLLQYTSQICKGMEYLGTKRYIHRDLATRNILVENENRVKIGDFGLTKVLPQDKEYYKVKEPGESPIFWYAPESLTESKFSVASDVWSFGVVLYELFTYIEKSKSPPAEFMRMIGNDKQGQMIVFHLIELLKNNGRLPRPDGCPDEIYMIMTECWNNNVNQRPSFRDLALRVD
Method in brief: (§2)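 Mobility-shift microfluidic read-out: substrate and phosphopeptide peaks separated, % conversion = product/(product+substrate). Reaction used recombinant human kinase domain, synthetic peptide, 1 mM ATP, RT incubation to 20–30% turnover, quenched with EDTA. Percent effect versus DMSO and positive controls, plotted against concentration.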

TYK2 = TYK2 (Homo sapiens (Human), UniProt P29597); test: JAK Caliper Enzyme Assay at 1 mM ATP, TYK2
Chain of TYK2 (P29597 897-1176): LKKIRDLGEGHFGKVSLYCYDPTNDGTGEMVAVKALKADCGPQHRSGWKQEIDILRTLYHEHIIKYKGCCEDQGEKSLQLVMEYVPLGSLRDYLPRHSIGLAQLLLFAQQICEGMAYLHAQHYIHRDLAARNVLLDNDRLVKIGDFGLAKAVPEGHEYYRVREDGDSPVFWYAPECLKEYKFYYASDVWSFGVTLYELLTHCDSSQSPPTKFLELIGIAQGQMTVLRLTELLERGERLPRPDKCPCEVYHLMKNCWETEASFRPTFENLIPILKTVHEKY
Method in brief: as §2

Chain of JAK3 (P52333 822-1111): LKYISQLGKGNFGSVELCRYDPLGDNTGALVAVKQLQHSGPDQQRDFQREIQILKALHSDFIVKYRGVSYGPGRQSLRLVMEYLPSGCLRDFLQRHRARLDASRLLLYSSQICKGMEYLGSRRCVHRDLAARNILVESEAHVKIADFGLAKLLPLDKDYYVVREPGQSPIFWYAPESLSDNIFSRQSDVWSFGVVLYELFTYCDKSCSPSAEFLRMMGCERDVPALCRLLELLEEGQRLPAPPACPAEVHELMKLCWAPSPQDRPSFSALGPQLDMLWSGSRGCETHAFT

Row | SMILES | IC50 (JAK3) | IC50 (JAK1) | IC50 (JAK2) | IC50 (TYK2)
1 | Cn1cc(-c2cc3ncccc3c(-c3cn(C4(CC#N)CN(CC(F)(F)F)C4)nn3)n2)cn1 [Example 280, [3-{4-[7-(1-methyl-1H-pyrazol-4-yl)-1,6-naphthyridin-5-yl]-1H-1,2,3-triazol-1-yl}-1-(2,2,2-trifluoroethyl)azetidin-3-yl]acetonitrile] | 3260 nM | 182 nM | 28 nM | 9 nM
2 | CS(=O)(=O)N1CC(CC#N)(n2ncc(-c3nc(-c4cc[nH]n4)cc4ncccc34)n2)C1 [Example 281, [1-(methylsulfonyl)-3-{4-[7-(1H-pyrazol-3-yl)-1,6-naphthyridin-5-yl]-2H-1,2,3-triazol-2-yl}azetidin-3-yl]acetonitrile] | > 10000 nM | 179 nM | 90 nM | 16 nM
3 | Cn1cc(-c2cc3ncccc3c(-c3cc(C4(CC#N)CN(CC#N)C4)no3)n2)cn1 [Example 282] | > 10000 nM | 219 nM | 45 nM | 60 nM
4 | CS(=O)(=O)N1CC(CC#N)(n2ccc(-c3cc(-c4cc[nH]n4)cc4ncccc34)n2)C1 [Example 283, [1-(methylsulfonyl)-3-{3-[7-(1H-pyrazol-3-yl)quinolin-5-yl]-1H-pyrazol-1-yl}azetidin-3-yl]acetonitrile] | > 10000 nM | 5670 nM | 2000 nM | 176 nM
5 | CS(=O)(=O)N1CC(CC#N)(n2ccc(-c3cc(-c4cn[nH]c4)cc4ncccc34)n2)C1 [Example 284, [1-(methylsulfonyl)-3-{3-[7-(1H-pyrazol-4-yl)quinolin-5-yl]-1H-pyrazol-1-yl}azetidin-3-yl]acetonitrile] | > 10000 nM | 6830 nM | 2500 nM | 171 nM
6 | Cn1cc(-c2cc(-c3ccn(C4(CC#N)CN(CC(F)(F)F)C4)n3)c3cccnc3c2)cn1 [Example 285, [3-{3-[7-(1-methyl-1H-pyrazol-4-yl)quinolin-5-yl]-1H-pyrazol-1-yl}-1-(2,2,2-trifluoroethyl)azetidin-3-yl]acetonitrile] | > 10000 nM | > 10000 nM | 2950 nM | 342 nM
7 | Cn1cc(-c2cc(-c3ccn(C4(CC#N)CN(S(C)(=O)=O)C4)n3)c3cccnc3c2)cn1 [Example 286, [3-{3-[7-(1-methyl-1H-pyrazol-4-yl)quinolin-5-yl]-1H-pyrazol-1-yl}-1-(methylsulfonyl)azetidin-3-yl]acetonitrile] | > 10000 nM | > 10000 nM | 1810 nM | 212 nM
8 | CS(=O)(=O)N1CC(CC#N)(n2ccc(-c3cc(-c4ccc(=O)[nH]c4)cc4ncccc34)n2)C1 [Example 287, [1-(methylsulfonyl)-3-{3-[7-(6-oxo-1,6-dihydropyridin-3-yl)quinolin-5-yl]-1H-pyrazol-1-yl}azetidin-3-yl]acetonitrile] | > 10000 nM | > 10000 nM | 5380 nM | 201 nM
9 | CS(=O)(=O)N1CC(CC#N)(n2cc(-c3cc(-c4cc[nH]n4)cc4ncccc34)cn2)C1 [Example 288, [1-(methylsulfonyl)-3-{4-[7-(1H-pyrazol-3-yl)quinolin-5-yl]-1H-pyrazol-1-yl}azetidin-3-yl]acetonitrile] | > 10000 nM | 796 nM | 336 nM | 112 nM
10 | CS(=O)(=O)N1CC(CC#N)(n2cc(-c3cc(-c4cn[nH]c4)cc4ncccc34)cn2)C1 [Example 289, [1-(methylsulfonyl)-3-{4-[7-(1H-pyrazol-4-yl)quinolin-5-yl]-1H-pyrazol-1-yl}azetidin-3-yl]acetonitrile] | > 10000 nM | 1530 nM | 525 nM | 197 nM
11 | N#CC[C@]1(n2cc(-c3cc(-c4cn[nH]c4N)cc4ncccc34)cn2)C[C@H](C#N)C1 [Example 290, trans-3-{4-[7-(5-amino-1H-pyrazol-4-yl)quinolin-5-yl]-1H-pyrazol-1-yl}-3-(cyanomethyl)cyclobutanecarbonitrile] | > 10000 nM | 2960 nM | 1750 nM | 236 nM
12 | CO[C@H]1C[C@](CC#N)(n2cc(-c3cc(-c4c[nH]nc4N)cc4ncccc34)cn2)C1 [Example 291, (trans-1-{4-[7-(3-amino-1H-pyrazol-4-yl)quinolin-5-yl]-1H-pyrazol-1-yl}-3-methoxycyclobutyl)acetonitrile] | > 10000 nM | 8820 nM | 3740 nM | 343 nM
13 | Cn1cc(-c2cc(-c3cnn(C4(CC#N)CN(CC#N)C4)c3)c3cccnc3c2)cn1 [Example 292, 2,2′-(3-{4-[7-(1-methyl-1H-pyrazol-4-yl)quinolin-5-yl]-1H-pyrazol-1-yl}azetidine-1,3-diyl)diacetonitrile] | > 10000 nM | 653 nM | 71 nM | 36 nM
14 | Cc1cc(-c2cc(-c3cc[nH]n3)cc3ncccc23)nn1C1(CC#N)CN(S(C)(=O)=O)C1 [Example 293, [3-{5-methyl-3-[7-(1H-pyrazol-3-yl)quinolin-5-yl]-1H-pyrazol-1-yl}-1-(methylsulfonyl)azetidin-3-yl]acetonitrile] | > 10000 nM | 8190 nM | 2980 nM | 81 nM
15 | Cn1cc(-c2cc(-c3cn(C4(CC#N)CN(S(C)(=O)=O)C4)nn3)c3cccnc3c2)cn1 [Example 294, [3-{4-[7-(1-methyl-1H-pyrazol-4-yl)quinolin-5-yl]-1H-1,2,3-triazol-1-yl}-1-(methylsulfonyl)azetidin-3-yl]acetonitrile] | > 10000 nM | 1340 nM | 151 nM | 267 nM
16 | CS(=O)(=O)N1CC(CC#N)(n2cc(-c3cc(-c4ccc(=O)[nH]c4)cc4ncccc34)nn2)C1 [Example 295, [1-(methylsulfonyl)-3-{4-[7-(6-oxo-1,6-dihydropyridin-3-yl)quinolin-5-yl]-1H-1,2,3-triazol-1-yl}azetidin-3-yl]acetonitrile] | > 10000 nM | 7720 nM | 2580 nM | 155 nM
17 | N#CCC1(n2ncc(-c3cc(-c4cc[nH]n4)cc4ncccc34)n2)CN(CC(F)(F)F)C1 [Example 296, [3-{4-[7-(1H-pyrazol-3-yl)quinolin-5-yl]-2H-1,2,3-triazol-2-yl}-1-(2,2,2-trifluoroethyl)azetidin-3-yl]acetonitrile] | > 10000 nM | 534 nM | 598 nM | 41 nM
18 | N#CCC1(n2ncc(-c3cc(-c4cc[nH]n4)cc4ncccc34)n2)CN(CC2(F)CC2)C1 [Example 297] | > 10000 nM | 4590 nM | 2470 nM | 315 nM
19 | N#CCC1(n2ncc(-c3cc(-c4cc[nH]n4)cc4ncccc34)n2)CN(S(=O)(=O)C2CC2)C1 [Example 299, [1-(cyclopropylsulfonyl)-3-{4-[7-(1H-pyrazol-3-yl)quinolin-5-yl]-2H-1,2,3-triazol-2-yl}azetidin-3-yl]acetonitrile] | > 10000 nM | 280 nM | 252 nM | 10 nM
20 | N#CCC1(n2ncc(-c3cc(-c4ccn[nH]4)cc4ncccc34)n2)CN(S(=O)(=O)C2COC2)C1 [Example 301, [1-(oxetan-3-ylsulfonyl)-3-{4-[7-(1H-pyrazol-5-yl)quinolin-5-yl]-2H-1,2,3-triazol-2-yl}azetidin-3-yl]acetonitrile] | > 10000 nM | 338 nM | 195 nM | 17 nM
21 | N#CC[C@]1(n2ncc(-c3cc(-c4cc[nH]n4)cc4ncccc34)n2)C[C@H](C#N)C1 [Example 302, trans-3-(cyanomethyl)-3-{4-[7-(1H-pyrazol-3-yl)quinolin-5-yl]-2H-1,2,3-triazol-2-yl}cyclobutanecarbonitrile] | > 10000 nM | 436 nM | 173 nM | 20 nM
22 | N#CC[C@]1(n2ncc(-c3cc(-c4cc[nH]n4)cc4ncccc34)n2)C[C@@H](C#N)C1 [Example 303, cis-3-(cyanomethyl)-3-{4-[7-(1H-pyrazol-3-yl)quinolin-5-yl]-2H-1,2,3-triazol-2-yl}cyclobutanecarbonitrile] | 3100 nM | 81 nM | 29 nM | 5 nM
23 | CO[C@H]1C[C@@](CC#N)(n2ncc(-c3cc(-c4cc[nH]n4)cc4ncccc34)n2)C1 [Example 304, (cis-3-methoxy-1-{4-[7-(1H-pyrazol-3-yl)quinolin-5-yl]-2H-1,2,3-triazol-2-yl}cyclobutyl)acetonitrile] | > 10000 nM | 2300 nM | 788 nM | 36 nM
24 | CO[C@H]1C[C@](CC#N)(n2ncc(-c3cc(-c4cc[nH]n4)cc4ncccc34)n2)C1 [Example 305, (trans-3-methoxy-1-{4-[7-(1H-pyrazol-3-yl)quinolin-5-yl]-2H-1,2,3-triazol-2-yl}cyclobutyl)acetonitrile] | > 10000 nM | 2560 nM | 1050 nM | 35 nM
25 | N#CCC1(n2ncc(-c3cc(-c4cc(N)[nH]n4)cc4ncccc34)n2)CC(C#N)C1 (stereo not drawn) [Example 306, trans-3-{4-[7-(5-amino-1H-pyrazol-3-yl)quinolin-5-yl]-2H-1,2,3-triazol-2-yl}-3-(cyanomethyl)cyclobutanecarbonitrile] | 9160 nM | 255 nM | 174 nM | 14 nM
26 | N#CC[C@]1(n2ncc(-c3cc(-c4cc(N)[nH]n4)cc4ncccc34)n2)C[C@@H](C#N)C1 [Example 307, cis-3-{4-[7-(5-amino-1H-pyrazol-3-yl)quinolin-5-yl]-2H-1,2,3-triazol-2-yl}-3-(cyanomethyl)cyclobutanecarbonitrile] | 1930 nM | 49 nM | 30 nM | 7 nM

Source: patent US11254668B2, “Pyrazolo[1,5-A]pyrazin-4-yl and related derivatives” (Pfizer Inc., priority 2017, dated 2022)
